# According to patent US11761894B2, “Silicon-rhodamine fluorescent probe containing hydrophobic group and use thereof” (AJOU UNIVERSITY INDUSTRY—ACADEMIC COOPERATION FOUNDATION, priority 2019, dated 2023):
# Entries after “also recorded” stand apart in the source; their conditions may differ.
# How the values were obtained:
# Assay type in all cases: cell-based, human
# [1] = tested on: Mitochondria-YFP Chang liver cells; assay: Mitochondrial targeting efficiency in Chang liver cells expressing mitochondrial YFP; settings: 1 μM, 60 min
# Method: (a) HeLa and Hep3B cells were incubated with MitoTracker Green (0.5 μM), and SiR-Mito 8 (1 μM) for 1 h. After washing 3 times with fresh media, fluorescent live cell images were acquired with LEICA DMi8 microscope. (MitoTracker green: FITC channel, SiR-Mito 8: Cy 5 channel, Scale bar: 15 μm); (b) Chang liver cells expressing mitochondrial YFP were incubated with SiR-Mito 8 (1 μM) for 1 h. After washing 3 times with fresh media, fluorescent live cell images were acquired with LEICA DMi8 microscope. (Mitochondrial-YFP: Rhodamine channel, Scale bar: 15 μm).
# The mitochondrial targeting efficiency of SiR-Mito 8 in live cells was examined by high-resolution imaging.
# To this end, Overexpression plasmid for Mitochondria-YFP was obtained from Catholic University (Seoul, Korea) and transfected into Chang liver cells. Stable clones expressing Mitochondria-YFP was selected using 0.25 mg/ml G418. Next, Mitochondria-YFP infected Chang liver cells were cultured in Dulbecco's modified eagle media (DMEM, GIBCO) containing 10% fetal bovine serum (FBS, GIBCO) and 1% penicillin (GIBCO) at 37° C. in a humidified incubator with 5% CO2. For the fluorescence microscope imaging, cells were harvested using TrypLE™ Express (GIBCO) and resuspended in fresh culture medium. […] Cells were washed three times with 1×PBS and observed with inverted fluorescence microscope (DMi8, LEICA).
# [2] = tested on: mitochondria in HeLa cells; assay: Colocalization test of SiR-Mito probes with MitoTracker green in HeLa cells; settings: 1 μM probe, 1 h
# Method: HeLa cells were incubated with cell culture media containing 1 μM SiR-Mito probe, and 0.5 μM MitoTracker green. After 1 h, HeLa cells were washed three times with 1×PBS for and observed with a LEICA DMi8 fluorescent microscope. Each experiment was observed using 512-542 nm emitter for FITC channel (for MitoTracker Green), and 663-738 nm exciter, 545-625 nm emitter for Cy5 channel (for SiR-Mito probes). Scale bar: 50 μm.
# HeLa human cervical cancer cells were cultured in Dulbecco's modified eagle media (DMEM, GIBCO) containing 10% fetal bovine serum (FBS, GIBCO) and 1% penicillin (GIBCO) at 37° C. in a humidified incubator with 5% CO2. For the fluorescence microscope imaging, cells were harvested using TrypLE™ Express (GIBCO) and resuspended in fresh culture medium. Harvested cells with a density of 4.0×10^3 cells/well were seeded on a HeLa 96 black well plate (CORNING) and incubated for 24 h. Cells were incubated with SiR-Mito probes (1 μM) and MitoTracker Green (0.5 μM) for 60 min. After the incubation, cells were washed with 1×PBS for three times and observed with inverted fluorescence microscope (DMi8, LEICA). Each experiment was observed using a 325-375 nm exciter, 435-485 nm emitter for DAPI channel, 460-500 nm exciter, 512-542 nm emitter for FITC channel, 541-551 nm exciter, 565-605 nm emitter for Rhodamine channel, and 663-738 nm exciter, 545-625 nm emitter for Cy5 channel.
# To determine the effect of probe hydrophobicity on the efficiency of targeting to mitochondria, the Pearson coefficient for colocalization of SiR-Mito probes and MitoTracker green, a commercial fluorescent mitochondrial bioprobe, was measured (FIG. 1). For the colocalization test, human cervical cancer HeLa cells were seeded on 96-well plates and incubated for 1 h with 1 μM of each different SiR-Mito probe and 0.5 μM MitoTracker green, washed briefly with 1×PBS, and imaged with a LEICA DMi8 fluorescent microscope using the 40× objective.
# Hep3B cells = assay: Co-staining with Hoechst and Lysotracker Red in Hep3B cells; settings: 1 μM, 1 h
# Method: Liver cancer Hep3B cells were incubated with Hoechst (0.01 μg/ml), Lysotracker red (1 μM), and SiR-Mito 8 (1 μM) for 1 h. After washing 3 times with fresh media, fluorescence live cell images were acquired with a LEICA DMi8 microscope (Left). […] Scale bar: 50 μm.
# To verify the mitochondrial specificity of the SiR-Mito 8 probe, Hep3B human cancer cells were co-stained with a nuclear and a lysosomal tracer, in addition to SiR-Mito 8.
# To this end, 6.0×10^4 human HCC cell line Hep3B cells were seeded on confocal dish and incubated for 2 days. After 2 days, Hep3B cells were incubated with Hoechst, 1 μM Lysotracker Red, and 1 μM SiR-Mito 8 contained media for 1 h. After the incubation, Hep3B cells were washed with cell culture media for three times and observed with inverted fluorescence microscope (DMi8, LEICA).
substance,measurement,setting,value
"N-(10-(5-((cyclooctylmethyl) carbamoyl)-2-methylphenyl)-7-(dimethylamino)-5,5-dimethyldibenzo[b,e]silin-3(5H)-ylidene)-N-methylmethanaminium [SiR-Mito 8]",Mitochondrial targeting efficiency,[1],high mitochondrial targeting efficiency
same,Mitochondria Targeting (Pearson coefficient for colocalization with MitoTracker green),[2]; 0.5 μM MitoTracker green,*** (*** 0.9 ≤ R)
same,Pearson coefficient for colocalization with MitoTracker green,[2]; 0.5 μM MitoTracker green,highest
same,Intracellular fluorescence (SiR channel),[2],strongest
same,Mitochondrial specificity versus lysosome (Lysotracker Red co-staining),Hep3B cells,high mitochondrial specificity; also recorded: did not localize to other organelle such as lysosome
